Results reported in publication PMC6254154 (Molecules, 2009).

What was measured:
PLA2 of NK venom = test: Inhibition of PLA2 activity of NK venom (indirect hemolytic assay on agarose-erythrocyte-egg yolk gel plates); format: biochemical, Naja naja kaouthia; settings: NK venom 3.4 µg (one MIHD); pre-incubated 1 h at 37 °C; mean ± S.E.M. (n = 2)
Procedure: (§1) PLA2 activity in CR and NK venoms was measured using an indirect hemolytic assay on agarose-erythrocyte-egg yolk gel plates to define the minimum indirect hemolytic dose (MIHD), the dose of venom that induced a hemolysis halo of 20 mm diameter after incubation for 20 h at 37 °C. The inhibition of PLA2 activity by MSKE and its isolated phenolic principles was determined against one MIHD of CR and NK venoms. Test solutions and the venoms (0.05 mL each) were pre-incubated for 1 h at 37 °C. After centrifugation at 10,000 rpm for 10 min, the supernatant (20 µL) was tested for PLA2 activity. The anti-PLA2 potential of the extract and its phenolic principles was presented as percent inhibition of the enzymatic activity versus dose, in which 100% inhibition should produce no clear zone. ED50, the effective dose that PLA2 activity of the venoms was reduced by 50%, was calculated.

[1] = tested on: hyaluronidase of CR venom; test: Inhibition of hyaluronidase activity of CR venom (turbidimetric); format: biochemical, Calloselasma rhodostoma; settings: CR venom 250 µg; pre-incubated 30 min at 37 °C; mean ± S.E.M. (n = 2)
Procedure: (§2) Hyaluronidase activity was determined according to the methods of Ferrante and Yingprasertchai et al. with slight modification. CR or NK venom (25-1,000 µg) in PBS (pH 7.4) was incubated with hyaluronic acid (50 μg) in 0.2 M sodium acetate buffer (1 mL, pH 5) that contained 0.15 M NaCl for 25 min at 37 °C. The reaction was stopped by adding 2.5% cetyltrimethylammonium bromide in 2% NaOH (2 mL). The optical density at 400 nm of each sample was read after 30 min with a Shimadzu UV-VIS spectrophotometer UV-160A against blank. Turbidity-reducing activity was expressed as the percentage of the remaining hyaluronic acid, taking the absorbance of a tube to which no enzyme was added as 100%. The venom concentration that produced a reduction in turbidity of ~50% was used in inhibition experiments. […] Blanks containing only the buffer and test sample were run in parallel. The anti-hyaluronidase potential of the extract and its phenolic principles was presented as percent inhibition of the enzymatic activity versus dose. ED50, the effective dose that hyaluronidase activity of the venoms was reduced by 50%, was calculated.

[2] = tested on: hyaluronidase of NK venom; test: Inhibition of hyaluronidase activity of NK venom (turbidimetric); format: biochemical, Naja naja kaouthia; settings: NK venom 250 µg; pre-incubated 30 min at 37 °C; mean ± S.E.M. (n = 2)
Procedure: as §2

LAAO of CR venom = target: T1, LAAO of CR venom (Calloselasma rhodostoma, UniProt P81382); test: Inhibition of LAAO activity of CR venom (enzyme-coupled assay); format: biochemical; settings: CR venom 50 µg; pre-incubated 1 h at 37 °C; mean ± S.E.M. (n = 2)
T1 construct: from tissue; host or cells: crude snake venom (CR)
T1 sequence (P81382 19-516): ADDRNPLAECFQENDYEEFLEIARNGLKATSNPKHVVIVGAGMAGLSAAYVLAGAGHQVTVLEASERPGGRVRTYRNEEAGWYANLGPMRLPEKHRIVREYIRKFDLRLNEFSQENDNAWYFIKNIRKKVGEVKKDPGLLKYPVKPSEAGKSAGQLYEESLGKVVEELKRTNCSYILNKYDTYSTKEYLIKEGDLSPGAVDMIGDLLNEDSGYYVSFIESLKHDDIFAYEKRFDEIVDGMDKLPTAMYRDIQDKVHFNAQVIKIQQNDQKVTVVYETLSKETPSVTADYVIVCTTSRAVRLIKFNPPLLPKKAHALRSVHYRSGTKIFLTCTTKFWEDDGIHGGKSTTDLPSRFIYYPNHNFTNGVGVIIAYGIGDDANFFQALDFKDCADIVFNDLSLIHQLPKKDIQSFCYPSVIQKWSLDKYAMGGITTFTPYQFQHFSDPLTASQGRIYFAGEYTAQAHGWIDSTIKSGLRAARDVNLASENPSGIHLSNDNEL
Procedure: (§3) LAAO activity of CR and NK venoms was determined by using an enzyme-coupled assay. The assay mixture contained 0.025 mL 0.014% peroxidase and 0.2 M triethanolamine buffer (1 mL, pH 7.6) that contained 0.1% L-leucine and 0.0065% o-dianisidine. After incubation at 25 °C for 3 min, 0.1 mL CR or NK venom in PBS (1 mg/mL) was added, and an increase in absorbance at 436 nm (Shimadzu UV-VIS spectrophotometer UV-160A) was measured against blank. Enzymatic activity was calculated from the linear portion of the time–absorbance plot, where one unit of enzymatic activity was defined as the amount of enzyme that caused an increase of 0.001 absorbance units per minute. The percent inhibition of LAAO activity by MSKE and its isolated phenolic principles was evaluated by pre-incubating CR or NK venom (0.1 mL, 1 mg/mL) with test sample in sterile water for injection (SWI) (0.1 mL) for 1 h at 37 °C. After pre-incubation, the mixture was centrifuged at 10,000 rpm for 5 min, and supernatant (0.1 mL) was evaluated for LAAO activity. Venoms, test sample, and solvents alone were used as controls. The anti-LAAO potential of the extract and its phenolic principles was presented as percent inhibition of the enzymatic activity versus dose. ED50, the effective dose that LAAO activity of the venoms was reduced by 50%, was calculated.

PLA2 of CR venom = test: Inhibition of PLA2 activity of CR venom (indirect hemolytic assay on agarose-erythrocyte-egg yolk gel plates); format: biochemical, Calloselasma rhodostoma; settings: CR venom 17.1 µg (one MIHD); pre-incubated 1 h at 37 °C; mean ± S.E.M. (n = 2)
Procedure: as §1

LAAO of NK venom = test: Inhibition of LAAO activity of NK venom (enzyme-coupled assay); format: biochemical, Naja naja kaouthia; settings: NK venom 50 µg; pre-incubated 1 h at 37 °C; mean ± S.E.M. (n = 2)
Procedure: as §3

SMILES	PLA2 (ED50, µg) NK venom (PLA2 of NK venom) [µg]	Hyaluronidase (ED50, µg) CR venom [1] [µg]	Hyaluronidase (ED50, µg) NK venom [2] [µg]	LAAO (ED50, µg) CR venom (LAAO of CR venom) [µg]	PLA2 (ED50, µg) CR venom (PLA2 of CR venom) [µg]	LAAO (ED50, µg) NK venom (LAAO of NK venom) [µg]
O=C(O)c1cc(O)c(O)c(O)c1 [GA, gallic acid]	123.5 ± 2.5	16.0 ± 2.5	14.8 ± 1.4	1.7 ± 3.4	66.0 ± 2.5	4.5 ± 2.8
COC(=O)c1cc(O)c(O)c(O)c1 [MG, methyl gallate]	108.7 ± 2.0	5.9 ± 2.4	8.6 ± 2.1	2.3 ± 2.4	42.9 ± 2.3	4.4 ± 2.0
O=C(OC[C@H]1O[C@@H](OC(=O)c2cc(O)c(O)c(O)c2)[C@H](OC(=O)c2cc(O)c(O)c(O)c2)[C@@H](OC(=O)c2cc(O)c(O)c(O)c2)[C@@H]1OC(=O)c1cc(O)c(O)c(O)c1)c1cc(O)c(O)c(O)c1 [PGG, 1,2,3,4,6-penta-O-galloyl-β-D-glucopyranose]	30.2 ± 2.4	3.4 ± 2.4	2.6 ± 1.7	0.9 ± 2.4	25.6 ± 1.3	2.2 ± 2.0
